According to US11530190B2, “Compounds for treating mitochondrial disease” (Khondrion IP B.V., priority 2015, dated 2022):

Assays:
[1] = tested on: fibroblasts from healthy individuals; assay: Effect of BSO on viability of fibroblasts from healthy individuals, Calcein-AM; assay type: cell-based, human; conditions: BSO 200 μM, 48 h; FIG. 1
Protocol: FIG. 1. Effect of L-buthionine-(S,R)-sulfoximine (BSO), an inhibitor of glutathione synthesis, on the viability of primary human fibroblasts derived from healthy individuals or derived from Complex-I deficient patients. Two days after treatment of 48 h with 200 μM BSO, cells were washed and stained with Calcein-AM. Cell viability was determined as a function of fluorescence intensity.
(§1) Methods: To assess the ability of the compounds to protect patient cells against oxidative stress-induced cell death an assay was established using stressed primary human fibroblasts derived from a Complex-I deficient patient. Utilizing the inherent oxidative stress of fibroblasts from patients with mitochondrial disease, their oxidative burden was further increased by depleting cellular glutathione with an inhibitor of glutathione synthesis, L-buthionine-(S,R)-sulfoximine (BSO).

[2] = tested on: primary human fibroblasts derived from a Complex-I deficient patient; assay: Protection against oxidative stress-induced (BSO) cell death, Calcein-AM viability; assay type: cell-based
From the text: as §1
Cells were seeded at a density of 3000 cells/well in a 96-well format plate and incubated with increasing concentrations of compounds in combination with BSO (200 μM, Sigma-Aldrich). Two days after treatment, the cells were washed twice and stained with a solution of 5 μM Calcein-AM (Life technologies C3100MP) during 25 min in 199 medium without phenol red (Life technologies, 11043-023) at 37° C., 5% CO2. After 2 washes with PBS the plate was read on a fluorescence plate reader (Fluostar Omega, BMG labtech) and the percentage of cell viability was determined as a function of fluorescence intensity (FIG. 2).

[3] = tested on: Primary human fibroblasts obtained from a patient with mitochondrial disease; assay: Intracellular superoxide production, hydroethidine (HEt) fluorescence microscopy; assay type: cell-based; conditions: approximately 24 hours with increasing concentrations, HEt 10 μM; FIG. 4A-E
Protocol: Methods: HEt (Hydroethidine) is a non-fluorescent compound, which can enter the cells freely. There it is oxidized by superoxide to its fluorescent products E^+ and 2OHE^+, which accumulate in negatively charged cellular compartments (i.e. nucleus and mitochondria). E^++2OHE^+ fluorescence is thus considered a measure of superoxide production within the cell.
The effect of the compounds on the intracellular superoxide levels was measured. Primary human fibroblasts obtained from a patient with mitochondrial disease were seeded at a density of 3000 cells/well in a 96-well format. The following day, the culture medium was replaced with 100 μl medium containing the compounds at different concentrations. After approximately 24 hours the cells were incubated with 100 μL medium without FBS and phenol red and containing HEt at a final concentration 10 μM (Life Technologies). The cell culture plate containing HEt was placed for 10 minutes at 37° C., 5% CO2. Next, the cells were washed twice with medium, placed in culture medium without FBS and phenol red and visualized by fluorescence microscopy (BD Pathway 855, BDBiosciences). From the obtained images superoxide levels were analysed using Image Pro plus (Media Cybernetics) software.

[4] = tested on: Primary human fibroblasts derived from a patient with mitochondrial disease; assay: Cellular ROS levels after H2O2 induction, CM-H2DCFDA fluorescence; assay type: cell-based; conditions: compound 10 μM, H2O2 100 μM; FIG. 3
From the text: Methods: CM-H2DCFDA is a cell-permeable reporter molecule for reactive oxygen species (ROS) that is converted into non-fluorescent and membrane-impermeable CM-H2DCF following removal of its acetate groups by intracellular esterases. Upon oxidation by ROS, CM-H2DCF is converted into fluorescent CM-DCF. It is widely accepted that a wide variety of ROS can be responsible for the CM-H2DCF oxidation, making it a suitable reporter of cellular oxidant levels. The average cellular CM-DCF fluorescence intensity is considered an indirect measure of cellular ROS levels.
The effect of the compounds on the intracellular ROS levels was measured in response to an induction of ROS by hydrogen peroxide. Primary human fibroblasts derived from a patient with mitochondrial disease were seeded at a density of 2500 cells/well in a 96-well format plate. […] Wells without cells were used to correct for the background fluorescence. The plate was read on a fluorescence plate reader (Fluostar Omega, BMG labtech) in a kinetic mode with a 2 min interval cycle. After 4 cycles, H2O2 (final concentration 100 μM) was added using onboard injectors and the fluorescence measurement was resumed for 1 hour. After background correction the fluorescence intensities were plotted as a function of time.

[5] = tested on: cultured healthy human skin fibroblasts; conditions: cited from earlier work

Row | SMILES | superoxide scavenging / superoxide levels (HEt fluorescence) [3] | H2O2-mediated induction of cellular ROS levels (CM-DCF fluorescence) [4] | other results
1 | CCCCS(=N)(=O)CCC(N)C(=O)O [BSO, L-buthionine-(S,R)-sulfoximine] |  |  | viability of fibroblasts from healthy individuals after BSO insult [1]: retained full viability; viability of patient fibroblasts after BSO insult ([2]; BSO 200 μM alone, within 48 h, FIG. 1): complete cell death
2 | CC(C)=CCC/C(C)=C/CC/C(C)=C/CC[C@@](C)(O)CCC1=C(C)C(=O)C(C)=C(C)C1=O [EPI743] | only a limited ability to scavenge superoxide | slightly diminished | EC50 ([2]; 200 μM BSO, two days, Calcein-AM cell viability, formate salt, read-out: EC50 in protecting the cells against oxidative stress-induced cell death): 35.3 nM
3 | COC1=C(OC)C(=O)C(CCCCCCCCCCO)=C(C)C1=O [Idebenone] | only a limited ability to scavenge superoxide | slightly diminished | 
4 | Cc1c(C)c2c(c(C)c1O)CCC(C)(C(=O)O)O2 (centres unmarked) [Trolox, 6-hydroxy-2,5,7,8-tetramethylchroman-2-carboxylic acid] |  |  | levels of ROS [5]: reduces the levels of ROS
